We go through 64 molecules from a melting point compilation (Tetko et al.; mined from patent text by program, amines drawn as free bases though some values may be those of a salt).

Structures are written as SMILES.

A word on the melting point: it is the temperature, or range, at which the solid turns liquid.

For `FS(F)(F)(F)(Cl)c1cccc(S(F)(F)(F)(F)Cl)c1`, the melting point lay within 82 to 83.5 °C.

On to `CON(C(=O)Nc1nc(OCC(F)(F)F)cc(OCC(F)(F)F)n1)c1ccc(Cl)cc1`, for which the melting point lay within 275 to 276 °C.

Molecule `COc1cccc(Cl)c1C1Cc2c(ccn2C)C2C(=O)NC(=O)C12` (centres undefined) had a melting point of 186 to 188 °C.

Molecule `Cn1c(COc2ccc(CC3SC(=O)NC3=O)cc2)nc2cnccc21` (centres undefined) showed a melting point of 264 to 265 °C.

In the case of `CSc1nc(-c2cccnc2)c(-c2ccccc2)n1C`, the melting point fell in the range of 123 to 127 °C.

Take `COc1cccc2nc(-c3cc(C)c(OCCN4CCCC4)c(C)c3)[nH]c(=O)c12`: the melting point fell in the range of 157 to 158 °C.

`O=C(NC1CCCCC1O)c1ccccc1` (centres undefined) came in with a melting point of 172 to 173 °C.

On to `CCCCN(Cc1ccc(-c2ccccc2-c2nnnn2C(c2ccccc2)(c2ccccc2)c2ccccc2)cc1)c1cc(C)nc(C)n1`, for which the melting point was 125 to 127 °C.

`CC(=NOCCO)c1ccc(-c2ccccc2)cn1` displayed a melting point of 66 to 68 °C.

`CC(C)C[C@H](NC(=O)OCc1ccc(Cl)cc1)C(=O)N[C@@H](Cc1ccccc1)C(=O)CSCc1ccco1` had a melting point of 123 to 124 °C.

`CC(C)CC(=O)Nc1cccc(-c2ccnc3c(-c4cc(Cl)cc(Cl)c4)cnn23)c1` displayed a melting point of 223 to 225 °C.

With `CCCCCCCCCCS(=O)(=O)NC(=O)c1cnc(C(=O)O)c(OC)c1`, the melting point turned out to be 145 °C.

`Nc1c(Cl)c(C(F)(F)F)nn1-c1c(Cl)cc(C(F)(F)F)cc1Cl`: the melting point was in the range of 99 to 100 °C.

The molecule `O=c1[nH]c2ncc(-c3ccc(-c4n[nH]c(CO)n4)cc3)nc2n1CC1CCOCC1` registered a melting point of 258 to 260 °C.

The molecule `COc1cc2c(cc1OC)C(CN1CCN(c3ccc(F)cc3)CC1)OCCC2` (centres undefined) registered a melting point of 135 to 136 °C.

In turn, `O=C(NCCc1ccc(O)c(O)c1)OCc1ccccc1` registered a melting point of 129 to 130 °C.

Take `C[C@@H](O)COc1c(N)ccc(F)c1F`: the melting point was 47 to 48 °C.

`CCOCn1cnc2c(N)nc3ccccc3c21` showed a melting point of 255 to 261 °C.

In the case of `O=c1[nH]cnc2cccnc12`, the melting point fell in the range of 343 to 345 °C.

Turning to `[N-]=[N+]=NCC(=O)c1cn2c3c(cccc13)CCC2`, the melting point lay within 92 to 93 °C.

With `COC(=O)CCCCCCC1=CCC(O)C1=O` (centres undefined), the melting point fell in the range of 62.5 to 63.5 °C.

`O=c1cc(-c2cccc(Cl)c2)c2cc(Br)ccc2[nH]1` returned a melting point of 105 °C.

`COc1ccc2cc(C(N)=O)c(N)nc2c1OC` registered a melting point of 218 to 219 °C.

For `O=C(CCCCNC(=O)c1cn2c3c(cccc13)CCC2)NO`, the melting point was in the range of 179 to 181 °C.

For the molecule `CC(C)(C)c1cc(I)c(O)c(CNC(=O)C(F)(F)F)c1`, the melting point is 118 to 119 °C.

Molecule `O=C(Nc1ccc(-n2cnc(Cl)c2Cl)cc1)Nc1ccc(C(F)(F)F)cc1` returned a melting point of 221 to 224 °C.

As to `CC(C)Oc1nc(N)nc2[nH]cnc12`, the melting point lay in the range of 204 to 206 °C.

For `COc1ccc(N2N=C3c4cc(C)sc4S(=O)(=O)CCC3CC2=O)cc1` (centres undefined), the melting point lay within 190 to 191 °C.

Molecule `CC(=O)OC1CCC2(C)C(CCC3C4CCC(C(C)CC(=O)C(=O)N5CCOCC5)C4(C)CC(=O)C32)C1` (centres undefined) returned a melting point of 122 to 123 °C.

The molecule `Cc1ccc(-n2nc(C(F)F)cc2-c2ccc(S(C)(=O)=O)cc2)cc1Cl` had a melting point of 137 to 139 °C.

`O=Cc1ccc(OCCCc2ccccc2)c([N+](=O)[O-])c1` came in with a melting point of 82.5 °C.

Molecule `O=c1cc(-c2ccc(O)c(Cl)c2)oc2ncccc12` registered a melting point of 259 to 262 °C.

As for `COc1ccc(C2(C#N)CCC(=CC(=O)O)CC2)c2c1OCCO2` (centres undefined), the melting point lay within 203 to 204 °C.

On to `O=C(NCCO)c1[nH]c2ccc(Cl)cc2c1S(=O)(=O)c1ccccc1`, for which the melting point was in the range of 198 to 200 °C.

`Nc1ccc(N=Nc2ccc(N)c(C(F)(F)F)c2)c(C(F)(F)F)c1` yielded a melting point of 136 °C.

In the case of `Cc1ccc(OCc2c(F)cccc2F)c(N)n1`, the melting point lay in the range of 121 to 123 °C.

In turn, `COc1ccc(C2CCC(C(=O)O)CC2)c2c1OCO2` (centres undefined) came in with a melting point of 206 to 208 °C.

Molecule `Cc1occc1S(=O)(=O)C(C)(Cc1ccc(OCCN2CCCCC2)cc1)C(=O)NO` (centres undefined) yielded a melting point of 115 to 117 °C.

With `CCCOc1ccccc1-c1nc2nc(NCCCS(C)=O)ncc2c(=O)[nH]1` (centres undefined), the melting point fell in the range of 188 to 189 °C.

In turn, `CCc1nccn1CCCNC(=O)c1ccc(Cl)cc1` showed a melting point of 120 to 122 °C.

The molecule `CCOC(Cc1ccc(OCCN(C)c2nc3ccccc3o2)cc1)c1nc(C)no1` (centres undefined) yielded a melting point of 61 to 62 °C.

`CCN(C(=O)N(C)C)c1ccccc1-c1ccc2nnc(C)n2n1` yielded a melting point of 138 to 140 °C.

`O=C(O)COc1cccc2c1CCc1sc(S(=O)(=O)C(c3ccccc3F)c3ccccc3F)nc1-2` had a melting point of 204 to 208 °C.

Molecule `COc1ccc(CC(=O)NCc2ccccc2-c2ccccc2C(=O)NCc2ccc(F)cc2F)cc1` registered a melting point of 138 °C.

`COc1ccc(N2CCCn3c2nc2c(Cl)ccc(C(O)(C4CC4)C4CC4)c23)c(C)n1` came in with a melting point of 208 to 210 °C.

Regarding `O=C(Nc1cccc(OC(F)(F)F)c1)NC1N=C(c2ccccc2F)c2ccccc2N(CC(=O)N2CC3CCC(CC3)C2)C1=O` (racemic), the melting point is 156 to 164 °C.

Consider `CCCCCCCCCOC(=O)Oc1ccc(C(=O)O)cc1`, for which the melting point was 118 to 120 °C.

The molecule `Cc1cc(Oc2c(Cl)cc(C(F)(F)F)cc2Cl)nn1C(=S)NC(C)C` showed a melting point of 92 to 94 °C.

In turn, `CCCCC1(CC)COP(=O)(Cc2ccc([N+](=O)[O-])cc2)OC1` (centres undefined) displayed a melting point of 111 to 112 °C.

Turning to `O=C(Nc1cccc(Cc2nnn[nH]2)c1)C(F)(F)C(F)(F)C(F)(F)C(F)(F)C(F)(F)C(F)(F)C(F)(F)F`, the melting point lay within 163 to 166 °C.

For the molecule `CC(=O)c1c(O)cccc1OCC(O)COc1ccc(F)cc1` (centres undefined), the melting point is 111 to 113 °C.

The molecule `O=CC(=O)c1ccc(OCc2ccccc2)c(CO)c1` had a melting point of 180 to 181 °C.

The molecule `COc1ccc2ncc(F)cc2c1` had a melting point of 51 to 53 °C.

On to `CCOC(=O)COc1cc2c(c(Cl)c1Cl)C(=O)C(CC#C[Si](C)(C)C)(c1ccccc1)C2` (centres undefined), for which the melting point lay in the range of 112 to 113 °C.

As for `NC(=O)c1cc(Cl)c(Cl)cc1C(=O)O`, the melting point lay in the range of 197 to 201 °C.

As to `CS(=O)(=O)Oc1ccc2cc(CO)ccc2c1`, the melting point lay within 96 to 98 °C.

With `Cc1nc2cc(-c3ccccc3)nn2c2c1CCN2C(C)(C)C`, the melting point was in the range of 244 to 248 °C.

For `CN1c2ccccc2-c2nc3ccc(/C=C/C#N)cc3c3cccc1c23`, the melting point is 262 to 264 °C.

For the molecule `COc1ccc2nc(C)c(S(N)(=O)=O)n2n1`, the melting point is 251 °C.

For `CC(=O)ONC(=N)c1ccc(-c2cccc(-c3nc4ccc(C(=N)NOC(C)=O)cc4[nH]3)n2)cc1`, the melting point is 150 to 153 °C.

The molecule `CN(C)C=C(C=C(C#N)C(=O)OC(C)(C)C)c1cccnc1` showed a melting point of 161 to 163 °C.

In the case of `CC(C)=CCc1cc(C(=O)C=Cc2ccc(O)cc2)c(O)cc1O`, the melting point lay within 157 to 158 °C.

For `Cn1ncc2nc3c(c(O)c21)CCCC3`, the melting point was over 300 °C.

For `CC(C)OC(=O)COc1ccc(C(=O)CN2CCN(c3ccncc3)CC2)cc1`, the melting point lay within 64 to 66 °C.
